≈ marks a conversion by molar mass, not a printed value. Read-outs that look alike come from different tables or passages of the source.
What was measured:
B. subtilis DNA pol III = B. subtilis DNA pol III (Bacillus subtilis, UniProt P13267); assay: Inhibition of B. subtilis DNA pol III (Ki); type: biochemical
Method: (§1) To further investigate the antibacterial and/or DNA pol III inhibitory activity of various drug compounds, various ester-containing moieties N-linked to the EMAU core were produced as described in Example 1. These prodrugs were assayed for inhibition of B. subtilis DNA pol III and antibiotic activity against a number of bacteria.
(§2) The competitive inhibitor constants (Ki) of selected EMAU compounds were determined with three different pol Ills: the pol III enzyme from Bacillus subtilis (BS pol III), and the pol III enzymes of the clinically relevant pathogens, Enterococcus fecalis (EF pol III) and Staphylococcus aureus (SA pol 111).

SA pol III = molecular target: T1, SA pol III (Staphylococcus aureus, UniProt P0C1P9); assay: Inhibition of S. aureus pol III (Ki); type: biochemical; details: Table 4, average of 3 determinations, standard deviation 13.4%
T1 sequence (P0C1P9 1-1435): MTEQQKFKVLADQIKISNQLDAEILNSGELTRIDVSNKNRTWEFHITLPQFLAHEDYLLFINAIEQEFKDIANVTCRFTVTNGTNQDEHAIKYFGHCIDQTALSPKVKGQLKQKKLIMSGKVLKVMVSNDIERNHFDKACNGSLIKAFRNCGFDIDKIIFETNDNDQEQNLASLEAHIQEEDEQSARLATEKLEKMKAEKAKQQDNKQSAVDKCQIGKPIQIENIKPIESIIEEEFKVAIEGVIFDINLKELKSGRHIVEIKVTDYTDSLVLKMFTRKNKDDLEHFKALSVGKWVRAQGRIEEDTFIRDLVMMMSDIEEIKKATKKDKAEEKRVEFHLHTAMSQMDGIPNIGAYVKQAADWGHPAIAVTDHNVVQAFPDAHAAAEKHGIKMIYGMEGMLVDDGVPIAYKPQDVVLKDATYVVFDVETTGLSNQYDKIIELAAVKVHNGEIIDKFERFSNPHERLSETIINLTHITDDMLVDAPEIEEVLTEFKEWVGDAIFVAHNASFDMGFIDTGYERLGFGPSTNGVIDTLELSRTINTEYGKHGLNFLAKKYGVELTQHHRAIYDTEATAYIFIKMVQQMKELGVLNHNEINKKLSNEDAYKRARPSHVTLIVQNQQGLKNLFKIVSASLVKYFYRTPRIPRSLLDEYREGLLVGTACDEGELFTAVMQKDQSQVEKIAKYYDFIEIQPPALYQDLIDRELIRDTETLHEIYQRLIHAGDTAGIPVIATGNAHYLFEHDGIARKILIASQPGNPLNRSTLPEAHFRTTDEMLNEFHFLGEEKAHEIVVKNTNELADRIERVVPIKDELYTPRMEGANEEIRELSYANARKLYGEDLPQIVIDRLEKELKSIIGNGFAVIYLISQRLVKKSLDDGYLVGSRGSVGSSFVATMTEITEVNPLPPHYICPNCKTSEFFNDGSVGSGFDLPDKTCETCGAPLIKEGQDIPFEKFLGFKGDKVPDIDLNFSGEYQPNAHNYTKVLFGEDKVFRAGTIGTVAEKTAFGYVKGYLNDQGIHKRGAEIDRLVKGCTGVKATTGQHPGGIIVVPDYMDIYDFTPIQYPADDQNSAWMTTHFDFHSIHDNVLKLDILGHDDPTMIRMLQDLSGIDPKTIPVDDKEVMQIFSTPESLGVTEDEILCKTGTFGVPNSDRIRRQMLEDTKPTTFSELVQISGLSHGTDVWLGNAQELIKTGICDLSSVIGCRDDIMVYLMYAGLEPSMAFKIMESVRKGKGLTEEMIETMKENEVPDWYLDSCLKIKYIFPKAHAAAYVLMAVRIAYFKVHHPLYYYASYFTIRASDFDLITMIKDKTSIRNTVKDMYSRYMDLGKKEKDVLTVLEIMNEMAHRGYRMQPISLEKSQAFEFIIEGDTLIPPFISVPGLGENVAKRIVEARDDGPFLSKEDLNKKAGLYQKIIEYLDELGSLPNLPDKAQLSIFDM
Method: as §2

EF pol III = EF pol III (Enterococcus faecalis, UniProt Q831W8); assay: Inhibition of E. fecalis pol III (Ki); type: biochemical
Method: as §2

B. subtilis [1] = assay: MIC against B. subtilis; type: cell-based; details: for MIC: Bacillus subtilis, Table 5, read-out: MIC BS
Method: as §1
(§3) The minimal inhibitory concentrations (MICs) of the four N3-substituted agents and EMAU were determined for B. subtilis (BS), methicillin-sensitive and resistant S. aureus (SA & MRSA), vancomycin-sensitive and resistant E. fecalis (EF& VREF), vancomycin-resistant E. fecium (VREF*), and E. coli (EC) as a Gram-negative control.

S. aureus = assay: MIC against S. aureus (methicillin-sensitive); type: cell-based; details: for MIC: Staphylococcus aureus, Table 5, methicillin-sensitive, read-out: MIC SA
Method: as §1, §3

MRSA = assay: MIC against methicillin-resistant S. aureus strain MRSA / MRSA1; type: cell-based; details: for MIC: Staphylococcus aureus, MRSA, Table 5
Method: as §1, §3

MRSA2 = assay: MIC against methicillin-resistant S. aureus strain MRSA2; type: cell-based; details: for MIC: Staphylococcus aureus, Table 5
Method: as §1, §3

E. fecalis = assay: MIC against E. fecalis; type: cell-based; details: for MIC: Table 5, vancomycin-sensitive, read-out: MIC EF
Method: as §1, §3

[2] = system: vancomycin-resistant E. fecium; assay: MIC against vancomycin-resistant E. fecium (VRE, VREF*); type: cell-based; details: for MIC: Enterococcus, Table 5, vancomycin-resistant E. fecium
Method: as §1, §3

[3] = system: vancomycin-resistant E. fecalis; assay: MIC against vancomycin-resistant E. fecalis (VREF); type: cell-based; details: Table 5, vancomycin-resistant E. fecalis
Method: as §3

E. coli = assay: MIC against E. coli (Gram-negative control); type: cell-based; details: for MIC: Escherichia coli, Table 5, Gram-negative control
Method: as §1, §3

B. subtilis [4] = assay: Antibacterial activity of crude compounds made by small scale synthesis; type: cell-based; details: Bacillus subtilis; crude reaction mixtures dissolved in DMSO, assayed directly
Method: 6-Anilinouracils were synthesized using small scale synthetic methods. One milligram quantities of 3-(3-methoxypropyl)-6-chlorouracil were heated with 42 substituted anilines in micro-test tubes at 130° C. for 20 minutes. The reaction mixtures were dissolved in DMSO and assayed directly for antibacterial activity.

[5] = system: S. aureus (methicillin-sensitive Smith strain); assay: ip/ip mouse protection against lethal S. aureus infection; type: in vivo, mice
Method: Step 1: Screening—Each candidate prodrug is screened for activity in an ip/ip S. aureus protection model. Candidates that display efficacy equivalent to that of HB-EMAU and HB-IMAU are selected for advanced pharmacokinetic analysis and application in the more relevant mouse thigh model of infection.
The efficacy of the propyl derivatives was tested against murine staphylococcal infection in vivo. A simple “ip/ip” system was used, in which 20 gram mice (10 each) were injected ip (intraperitoneally) with a lethal dose (2.3×10^7 CFU) of the methicillin-sensitive Smith strain of S. aureus. The mice were then immediately injected ip with the antibiotic agent as a 1:9 mixture of DMSO:peanut oil. Vancomycin was used as the positive control drug.
Both hydroxybutyl compounds were tested at 10 mg/kg in the mouse protection experiment against lethal S. aureus infection described in Example 4 above.

E. fecium = assay: MIC against E. fecium; type: cell-based; details: Table 2
Method: as §1

[6] = Table 4, average of 3 determinations, standard deviation 13.4%, read-out: KI Bs pol III
[7] = Table 4, average of 3 determinations, standard deviation 13.4%, read-out: KI EF pol III

Sequence of B. subtilis DNA pol III (P13267 whole entry): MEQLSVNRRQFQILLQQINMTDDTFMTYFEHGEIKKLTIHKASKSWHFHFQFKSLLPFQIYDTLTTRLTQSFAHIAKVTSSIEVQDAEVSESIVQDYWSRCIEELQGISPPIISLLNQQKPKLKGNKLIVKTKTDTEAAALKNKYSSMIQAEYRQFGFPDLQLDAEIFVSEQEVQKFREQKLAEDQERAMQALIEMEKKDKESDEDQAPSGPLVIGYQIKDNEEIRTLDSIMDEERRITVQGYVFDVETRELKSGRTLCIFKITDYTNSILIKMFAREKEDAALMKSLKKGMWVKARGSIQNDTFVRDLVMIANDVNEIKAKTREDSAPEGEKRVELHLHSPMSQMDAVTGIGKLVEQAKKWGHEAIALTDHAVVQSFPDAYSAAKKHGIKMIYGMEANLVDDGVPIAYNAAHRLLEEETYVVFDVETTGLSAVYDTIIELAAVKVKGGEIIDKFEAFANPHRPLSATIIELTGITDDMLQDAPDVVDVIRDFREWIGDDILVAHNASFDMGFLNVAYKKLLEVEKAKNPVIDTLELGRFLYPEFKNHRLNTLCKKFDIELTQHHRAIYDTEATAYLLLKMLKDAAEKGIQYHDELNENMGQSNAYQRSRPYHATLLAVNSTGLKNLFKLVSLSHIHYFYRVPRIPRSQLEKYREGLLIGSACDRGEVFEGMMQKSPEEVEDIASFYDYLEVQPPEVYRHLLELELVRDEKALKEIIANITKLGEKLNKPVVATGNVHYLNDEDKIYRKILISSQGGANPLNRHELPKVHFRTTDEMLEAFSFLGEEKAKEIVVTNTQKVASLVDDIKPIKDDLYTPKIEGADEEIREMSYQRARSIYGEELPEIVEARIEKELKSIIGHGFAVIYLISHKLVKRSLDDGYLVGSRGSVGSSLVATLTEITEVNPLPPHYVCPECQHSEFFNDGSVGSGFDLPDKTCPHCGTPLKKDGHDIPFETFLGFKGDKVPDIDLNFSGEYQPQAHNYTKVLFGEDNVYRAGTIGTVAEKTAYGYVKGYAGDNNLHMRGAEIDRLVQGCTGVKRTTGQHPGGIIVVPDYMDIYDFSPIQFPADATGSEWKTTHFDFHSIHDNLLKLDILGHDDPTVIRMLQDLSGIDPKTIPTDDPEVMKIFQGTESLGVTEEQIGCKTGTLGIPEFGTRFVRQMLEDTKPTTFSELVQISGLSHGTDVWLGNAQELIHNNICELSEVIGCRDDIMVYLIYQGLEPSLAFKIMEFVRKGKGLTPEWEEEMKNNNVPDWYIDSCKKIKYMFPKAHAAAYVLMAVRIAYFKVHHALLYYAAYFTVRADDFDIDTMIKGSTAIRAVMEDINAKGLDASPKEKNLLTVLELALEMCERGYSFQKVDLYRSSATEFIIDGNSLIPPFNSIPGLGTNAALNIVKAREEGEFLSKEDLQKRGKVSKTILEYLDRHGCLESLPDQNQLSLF

SMILES	Ki (B. subtilis DNA pol III; [6]) [nM]	Ki (SA pol III) [nM]	MIC (B. subtilis [1]) [µg/mL]	MIC (S. aureus) [µg/mL]	MIC (MRSA) [µg/mL]	MIC (MRSA2) [µg/mL]	MIC (E. fecalis) [µg/mL]	MIC [2] [µg/mL]	MIC [3] [µg/mL]	MIC (E. coli) [µg/mL]	Ki (EF pol III; [7]) [nM]	also measured
CCc1cc(Nc2cc(=O)[nH]c(=O)[nH]2)ccc1C [EMAU, 6-(3-ethyl-4-methylanilino)uracil, reference compound]	250	810	12 (≈ 48.9 µM)	25 (≈ 102 µM)	25 (≈ 102 µM)	25 (≈ 102 µM)	25 (≈ 102 µM)	25 (≈ 102 µM)	25 (≈ 102 µM)	> 35		Ki (EF pol III): 260 nM
CCc1cc(Nc2cc(=O)n(CCCOC)c(=O)[nH]2)ccc1C [MP-EMAU]	240	820	0.5 (≈ 1.58 µM)	3.9 (≈ 12.3 µM)	3.9 (≈ 12.3 µM)	3.9 (≈ 12.3 µM)	1.9 (≈ 5.99 µM)	3.9 (≈ 12.3 µM)	1.9 (≈ 5.99 µM)	> 35	190	MIC (B. subtilis [4]): 3.13 µg/mL (≈ 9.86 µM); animals protected ([5]; 10 mg/kg ip): roughly 50%; animals protected ([5]; lower dose (5 mg/kg) ip): none
CCc1cc(Nc2cc(=O)n(CCOC)c(=O)[nH]2)ccc1C [ME-EMAU]	190	820	1 (≈ 3.3 µM)	10.3 (≈ 34 µM)	8.3 (≈ 27.4 µM)	12.4 (≈ 40.9 µM)	6.2 (≈ 20.4 µM)	8.3 (≈ 27.4 µM)	6.2 (≈ 20.4 µM)	> 35	160	
CCc1cc(Nc2cc(=O)n(CCO)c(=O)[nH]2)ccc1C [HE-EMAU]	200	980	1.1 (≈ 3.8 µM)	8.7 (≈ 30.1 µM)	17.4 (≈ 60.1 µM)	17.4 (≈ 60.1 µM)	6.5 (≈ 22.5 µM)	8.7 (≈ 30.1 µM)	8.7 (≈ 30.1 µM)	> 35	170	
CCc1cc(Nc2cc(=O)n(CCCO)c(=O)[nH]2)ccc1C [HP-EMAU]	330	420	1 (≈ 3.3 µM)	4.1 (≈ 13.5 µM)	8.3 (≈ 27.4 µM)	8.3 (≈ 27.4 µM)	4.1 (≈ 13.5 µM)	4.1 (≈ 13.5 µM)	4.1 (≈ 13.5 µM)	> 35	140	animals protected ([5]; 5 mg/kg ip): 70%; protection of mice ([5]; 10 mg/kg ip, 10 mice, 2.3×10^7 CFU S. aureus Smith ip, DMSO:peanut oil 1:9): protected all mice
CCc1cc(Nc2cc(=O)n(CCCCOC(=O)C(NC(=O)OC(C)(C)C)C(C)C)c(=O)[nH]2)ccc1C (stereo not drawn) [(CH2)4-OCOCH(iPr)NH-Boc]												Ki (B. subtilis DNA pol III; Table 2, prodrugs having the EMAU core, read-out: Ki B. subtilis DNA Pol III): 4900 nM; MIC B. subtilis (B. subtilis [1]; Table 2): 2.5 μ/ml; MIC S. aureus (S. aureus; Table 2): >20 μ/ml; MIC MRSA (MRSA; Table 2): >20 μ/ml; MIC MRSA2 (MRSA2; Table 2): >20 μ/ml; MIC E. fecalis (E. fecalis; Table 2): >20 μ/ml; MIC E. fecium (E. fecium): >20 μ/ml; MIC VRE ([2]; Table 2, vancomycin-resistant E. fecium): >20 μ/ml; MIC E. coli (E. coli; Table 2): >20 μ/ml

From patent US6448256B1, “Antibiotic prodrugs” (University of Massachusetts, priority 1999, dated 2002)
